One experiment concerns the target T1, AtMRP1 (Arabidopsis thaliana, UniProt Q9C8G9).
T1 construct: S. cerevisiae DTY168 (ycf1 null) vacuolar-enriched membrane vesicles
In words: AtMRP1-dependent uptake by membrane vesicles from pYES3-AtMRP1-transformed DTY168 cells. In kind it is biochemical. The protocol: S. cerevisiae strain DTY168 (MATα his6, leu2-3, -112, ura3-52 ycf1::hisG) was transformed with pYES3-AtMRP1 or empty vector lacking the AtMRP1 insert (pYES3) by the LiOAc/PEG method (Giest et al., 1991, Yeast 7:253-263) and selected for uracil prototrophy by plating on AHC medium containing tryptophan (Kim et al., 1994, supra).
For the preparation of membrane vesicles, 15 ml volumes of stationary phase cultures of the transformants were diluted into 1 L of fresh AHC medium and grown to an OD600 nm of about 1.2. Membrane vesicles were purified as described herein and in Kim et al. (1995, supra).
[…] μl reaction volumes containing 3 mM ATP, 3 mM MgSO4, 5 μM gramicidin-D, 10 mM creatine phosphate, 16 units/ml creatine kinase, 50 mM KCl, 1 mg/ml BSA, 400 mM sorbitol, 25 mM Tris-Mes ([…]).
(§1) Cells were grown and vacuolar membrane-enriched vesicles were prepared as described (Kim et al., 1995, J Biol. Chem. 270:2630-2635-). […] Uptake was terminated by the addition of 1 ml ice-cold wash medium (400 mM sorbitol/3 mM Tris-Mes, pH 8.0) and vacuum filtration of the suspension through prewetted Millipore HA cellulose nitrate filters (pore size 0.45 μm). The filters were rinsed twice with wash medium, and the retained radioactivity was determined by liquid scintillation counting. Nonenergized uptake was estimated by the same procedure except that ATP was omitted from the uptake medium.

The next experiment has as its target T2, AtMRP2 (Arabidopsis thaliana, UniProt Q42093).
T2 construct: S. cerevisiae DTY168 (ycf1 null) vacuolar-enriched membrane vesicles
In words: AtMRP2-dependent uptake by membrane vesicles from pYES3-AtMRP2-transformed DTY168 cells. In kind it is biochemical. The protocol:
as §1
Membranes from DTY168/pYES3-AtMRP2 cells were incubated for 10 minutes in standard uptake medium containing 61.3 μM [^3 H]DNP-GS after which time 200 mM glucose and 50 units/ml hexokinase (Type F-300 from baker's yeast) were added. […] Control samples were treated identically except that no additions were made after the initial 10 minute incubation period.

Experiment [1] deals with T3, YCF1 (vacuolar membrane vesicles purified from DTY165 cells) (Saccharomyces cerevisiae, UniProt P39109).
T3 construct: endogenous in cells; host or cells: S. cerevisiae DTY165 (wild type YCF1), vacuolar membrane vesicles
The experiment is described as follows: biochemical. The class given is biochemical. How it is done: (§2) In experiments involving cadmium transport, dithiothreitol and EGTA were removed from the suspension medium to prevent the attenuation of YCF1-dependent Cd^2+ transport otherwise exerted by these compounds. Vesiculated vacuolar membranes were subjected to three cycles of 50-fold dilution into simplified suspension medium (1.1 M glycerol, 5 mM Tris-Mes, pH 8.0), centrifugation at 100,000× g for 35 minutes and resuspension in the same medium before use.
(§3) Singly radiolabeled ^109 Cd.GSn and doubly radio-labeled ^109 Cd[^3 H].GS^n complexes were prepared by sequential gel-filtrationand anion-exchange chromatography of the reaction products generated by incubating 20 mM ^109 CdSO4 (78.4 mCi/mmol) with 40 mM GSH or 40 mM [^3 H]GSH (240 mCi/mmol) in 15 ml 10 mM phosphate buffer (pH 8.0) containing 150 mM KNO3 at 45° C. for 24 hours. For gel-filtration, 2 ml aliquots of the reaction mixture were applied to a column (40×1.5 cm ID) packed with water-equilibrated Sephadex G-1 5, eluted with deionized water and ^109 Cd and/or ^3 H in the fractions was measured by liquid scintillation counting. The fractions encompassed by each of the two ^109 Cd.GSn peaks identified were pooled, lyophilized and redissolved in 4 ml of loading buffer (5 mM Tris-Mes, pH 8.0). For anion-exchange chromatography, 0.5 ml aliquots of the resuspended lyophilizates from gel-filtration chromatography were applied to a Mono-Q HR5/5 column (Pharmacia) equilibrated with the same buffer. Elution was with a linear gradient of NaCl (0.5 ml/minute; 0-500 mM) dissolved in loading buffer. The individual fractions corresponding to the major peaks of ^109 Cd obtained from the Mono-Q column (one each for the peaks resolved by gel-filtration chromatography) were pooled, lyophilized and resuspended in 4 ml deionized water after liquid scintillation counting.
(§4) MgATP-energized, uncoupler-insensitive ^109 Cd^2+ uptake by vacuolar membrane vesicles was measured at 25° C. in 200 μl reaction volumes containing 3 mM ATP, 3 mM MgSO4, 5 μM gramicidin-D, 10 mM creatine phosphate, 16 units/ml creatine kinase, 50 mM KCl, 400 mM sorbitol, 25 mM Tris-Mes (pH 8.0) and the indicated concentrations of ^109 CdSO4, GSH or ^109 Cd- and/or ^3 H-labeled purified Cd.GSn complexes as described herein except that the wash media contained 100 μM CdSO4 in addition to sorbitol (400 mM) and Tris-Mes (3 mM, pH 8.0).

The target in experiment [2] is T3, YCF1 (vacuolar membrane vesicles purified from DTY165 cells). The experiment is described as follows: [3H]DNP-GS uptake by vacuolar membrane vesicles purified from DTY165 cells. In kind it is biochemical. How it is done:
(§5) For the routine preparation of vacuolar membrane vesicles, 15 ml of stationary phase cultures of DTY165 or DTY167 were diluted into 1-liter volumes of fresh YPD medium, grown for 24 hours at 30° C. to an OD600 nm of approximately 0.8 and collected by centrifugation. After washing with distilled water, the cells were converted to spheroplasts with Zymolyase 20T (ICN) (Kim et al., 1994, supra) and intact vacuoles were isolated by flotation centrifugation of spheroplast lysates on Ficoll 400 step gradients as described by Roberts et al. (1991, Methods. Enzymol. 194:644-661). Both the spheroplast lysis buffer and Ficoll gradients contained 2 mg/ml bovine serum albumin, 1 μg/ml aprotinin, 1 μg/ml leupeptin, 1 μg/ml pepstatin, and 1 mM PMSF to minimize proteolysis. The resulting vacuole fraction was vesiculated in 5 mM MgCl2, 25 mM KCl, 10 mM Tris-Mes (pH 6.9) containing 2 mg/ml bovine serum albumin, 1 μg/ml aprotinin, 1 μg/ml leupeptin, 1 μg/ml pepstatin, and 1 mM PMSF, pelleted by centrifugation at 37,000× g for 25 min, and resuspended in suspension medium (1.1 M glycerol, 2 mM dithiothreitol, 1 mM Tris-EGTA, 2 mg/ml bovine serum albumin, 1 μg/ml aprotinin, 1 μg/ml leupeptin, 1 μg/ml pepstatin, 1 mM PMSF, 5 mM Tris-Mes, pH 7.6) (Kim et al., 1995, J. Biol. Chem. 270:2630-2635).
(§6) Unless otherwise indicated, [^3 H]DNP-GS uptake was measured at 25° C. in 200 μl reaction volumes containing 3 mM ATP, 3 mM MgSO4, 5 μM gramicidin-D, 10 mM creatine phosphate, 16 units/ml creatine kinase, 50 mM KC 1, 1 mg/ml bovine serum albumin, 400 mM sorbitol, 25 mM Tris-Mes (pH 8.0), and 66.2 μM [^3 H]DNP-GS (8.7 mCi/mmol) (Li et al., 1995, supra). […] Uptake was initiated by the addition of vacuolar membrane vesicles (10-15 μg of membrane protein), brief mixing of the samples on a vortex mixer and uptake was then allowed to proceed for 1-60 minutes. Uptake was terminated by the addition of 1 ml of ice-cold wash medium (400 mM sorbitol, 3 mM Tris-Mes, pH 8.0) and vacuum filtration of the suspension through prewetted Millipore HA cellulose nitrate membrane filters (pore diameter, 0.45 μm). The filters were rinsed twice with 1 ml of ice-cold wash medium and air-dried, and radioactivity was determined by liquid scintillation counting in BCS mixture (Amersham Corp.). Nonenergized [^3 H]DNP-GS uptake and extravesicular solution trapped on the filters were enumerated by the same procedure except that ATP and Mg^2 +were omitted from the uptake medium.

Experiment [3] has as its system vacuolar membrane vesicles purified from DTY167 cells (ycf1Δ mutant). In kind it is biochemical, Saccharomyces cerevisiae. How it is done:
as §5, §6

In experiment [4] the test system is vacuolar GS-X pump (vacuolar membrane vesicles, V. radiata hypocotyls). The experiment is described as follows: GS-conjugate uptake by vacuolar membrane vesicles from etiolated hypocotyls of V. radiata. In kind it is biochemical, Vigna radiata. The protocol:
Values shown are means ±SE (n=3).
Vacuolar membrane vesicles were purified from etiolated hypocotyls of V. radiata cv.
Unless otherwise indicated, [^3 H]medicarpin or [3H]medicarpin-GS uptake was measured at 25° C. in 200 μl reaction volumes containing 3 mM ATP, 3 mM MgSO4, 10 mM creatine phosphate, 16 U/ml creatine kinase, 50 mM KCl, 0.1% (w/v) BSA, 400 mM sorbitol and 25 mM Tris-Mes buffer, pH 8.0. Uptake was initiated by the addition of 12 μl membrane vesicles (30-40 μg protein) and brief mixing of the samples on a vortex mixer. Uptake was terminated by the addition of 1 ml ice-cold wash medium (400 mM sorbitol, 3 mM Tris-Mes, pH 8.0) and vacuum filtration of the suspension through prewetted HA cellulose nitrate filters (pore diameter 0.45 μm). The filters were rinsed twice with a 1 ml ice-cold wash medium, air-dried and radioactivity was determined by liquid scintillation counting.

Experiment [5] concerns vacuolar membrane vesicles purified from DTY167 cells (ycf1Δ mutant). In kind it is biochemical, Saccharomyces cerevisiae. The protocol:
as §2, §3, §4
This is another data set of the same source.

The mark [6] stands for this setting: MgATP-dependent, uncoupler-insensitive.
[7] abbreviates: 50 μM 109Cd.GS2, bafilomycin A1 0.5 μM, FCCP 5 μM, gramicidin-D 5 μM, NH4Cl 1 mM.
Setting [8] is: as Table 7 concentrations, 10 min.
The mark [9] stands for this setting: 66.2 μM DNP-GS, 3 mM MgATP (omitted with MgAMP-PNP), MgAMP-PNP 3 mM, bafilomycin A1 0.5 μM, FCCP 5 μM, gramicidin D 5 μM, NH4Cl 1 mM.
[10] abbreviates: as Table 1 concentrations, 10 min.
Where [11] appears, read: gramicidin-D 5 μM, vanadate 10 μM, DNP-GS 100 μM.

Data on eight molecules can be found in patent US6166290A, “Glutathione-S-conjugate transport in plants” (The Trustees of the University of Pennsylvania, priority 1997, dated 2000).

Values joined by “and” are separate entries in the source; they are usually repeats but may differ in a detail not shown here. Equal entries are not always repeated.

Usually Km stands for the concentration of substrate that gives half-maximal velocity.

T1 sequence (Q9C8G9 whole entry): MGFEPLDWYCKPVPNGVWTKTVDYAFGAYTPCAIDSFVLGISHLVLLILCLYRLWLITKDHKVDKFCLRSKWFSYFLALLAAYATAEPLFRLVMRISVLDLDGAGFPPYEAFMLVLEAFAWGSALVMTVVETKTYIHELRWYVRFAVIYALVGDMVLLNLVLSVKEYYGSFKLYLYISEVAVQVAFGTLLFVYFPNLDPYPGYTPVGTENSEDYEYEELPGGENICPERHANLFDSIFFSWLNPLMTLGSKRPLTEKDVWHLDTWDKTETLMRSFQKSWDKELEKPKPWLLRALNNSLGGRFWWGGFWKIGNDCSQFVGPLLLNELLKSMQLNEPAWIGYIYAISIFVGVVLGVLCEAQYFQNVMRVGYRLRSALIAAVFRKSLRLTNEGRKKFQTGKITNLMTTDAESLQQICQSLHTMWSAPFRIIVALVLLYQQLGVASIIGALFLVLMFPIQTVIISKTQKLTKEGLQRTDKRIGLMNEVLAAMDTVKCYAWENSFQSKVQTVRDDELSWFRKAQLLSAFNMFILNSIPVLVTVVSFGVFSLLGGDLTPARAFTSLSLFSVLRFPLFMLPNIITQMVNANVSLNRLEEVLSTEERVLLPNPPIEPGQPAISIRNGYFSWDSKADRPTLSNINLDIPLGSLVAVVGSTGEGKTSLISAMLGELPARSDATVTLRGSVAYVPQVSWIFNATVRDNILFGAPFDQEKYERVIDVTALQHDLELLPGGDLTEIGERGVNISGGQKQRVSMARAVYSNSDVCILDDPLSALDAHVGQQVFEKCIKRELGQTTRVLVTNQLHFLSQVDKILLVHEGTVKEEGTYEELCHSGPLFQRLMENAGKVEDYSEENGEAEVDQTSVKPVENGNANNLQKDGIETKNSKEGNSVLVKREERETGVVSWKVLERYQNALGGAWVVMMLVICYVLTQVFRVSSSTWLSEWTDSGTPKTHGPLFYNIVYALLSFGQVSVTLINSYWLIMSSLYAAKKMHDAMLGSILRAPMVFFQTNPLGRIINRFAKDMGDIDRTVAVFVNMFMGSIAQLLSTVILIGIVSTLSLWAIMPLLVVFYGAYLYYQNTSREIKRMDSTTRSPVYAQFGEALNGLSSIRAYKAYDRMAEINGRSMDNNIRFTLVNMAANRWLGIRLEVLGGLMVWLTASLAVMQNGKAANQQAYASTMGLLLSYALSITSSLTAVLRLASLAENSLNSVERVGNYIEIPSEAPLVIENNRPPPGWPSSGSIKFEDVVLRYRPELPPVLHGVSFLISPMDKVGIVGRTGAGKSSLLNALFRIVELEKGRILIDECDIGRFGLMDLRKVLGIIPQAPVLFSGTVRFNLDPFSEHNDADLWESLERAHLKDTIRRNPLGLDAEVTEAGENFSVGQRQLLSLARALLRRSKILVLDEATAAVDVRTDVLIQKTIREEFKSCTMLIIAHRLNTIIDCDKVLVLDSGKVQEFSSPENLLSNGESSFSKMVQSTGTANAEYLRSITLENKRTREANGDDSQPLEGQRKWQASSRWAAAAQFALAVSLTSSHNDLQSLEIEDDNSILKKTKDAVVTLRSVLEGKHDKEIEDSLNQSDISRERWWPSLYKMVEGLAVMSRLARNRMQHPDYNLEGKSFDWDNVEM
T3 sequence (P39109 whole entry): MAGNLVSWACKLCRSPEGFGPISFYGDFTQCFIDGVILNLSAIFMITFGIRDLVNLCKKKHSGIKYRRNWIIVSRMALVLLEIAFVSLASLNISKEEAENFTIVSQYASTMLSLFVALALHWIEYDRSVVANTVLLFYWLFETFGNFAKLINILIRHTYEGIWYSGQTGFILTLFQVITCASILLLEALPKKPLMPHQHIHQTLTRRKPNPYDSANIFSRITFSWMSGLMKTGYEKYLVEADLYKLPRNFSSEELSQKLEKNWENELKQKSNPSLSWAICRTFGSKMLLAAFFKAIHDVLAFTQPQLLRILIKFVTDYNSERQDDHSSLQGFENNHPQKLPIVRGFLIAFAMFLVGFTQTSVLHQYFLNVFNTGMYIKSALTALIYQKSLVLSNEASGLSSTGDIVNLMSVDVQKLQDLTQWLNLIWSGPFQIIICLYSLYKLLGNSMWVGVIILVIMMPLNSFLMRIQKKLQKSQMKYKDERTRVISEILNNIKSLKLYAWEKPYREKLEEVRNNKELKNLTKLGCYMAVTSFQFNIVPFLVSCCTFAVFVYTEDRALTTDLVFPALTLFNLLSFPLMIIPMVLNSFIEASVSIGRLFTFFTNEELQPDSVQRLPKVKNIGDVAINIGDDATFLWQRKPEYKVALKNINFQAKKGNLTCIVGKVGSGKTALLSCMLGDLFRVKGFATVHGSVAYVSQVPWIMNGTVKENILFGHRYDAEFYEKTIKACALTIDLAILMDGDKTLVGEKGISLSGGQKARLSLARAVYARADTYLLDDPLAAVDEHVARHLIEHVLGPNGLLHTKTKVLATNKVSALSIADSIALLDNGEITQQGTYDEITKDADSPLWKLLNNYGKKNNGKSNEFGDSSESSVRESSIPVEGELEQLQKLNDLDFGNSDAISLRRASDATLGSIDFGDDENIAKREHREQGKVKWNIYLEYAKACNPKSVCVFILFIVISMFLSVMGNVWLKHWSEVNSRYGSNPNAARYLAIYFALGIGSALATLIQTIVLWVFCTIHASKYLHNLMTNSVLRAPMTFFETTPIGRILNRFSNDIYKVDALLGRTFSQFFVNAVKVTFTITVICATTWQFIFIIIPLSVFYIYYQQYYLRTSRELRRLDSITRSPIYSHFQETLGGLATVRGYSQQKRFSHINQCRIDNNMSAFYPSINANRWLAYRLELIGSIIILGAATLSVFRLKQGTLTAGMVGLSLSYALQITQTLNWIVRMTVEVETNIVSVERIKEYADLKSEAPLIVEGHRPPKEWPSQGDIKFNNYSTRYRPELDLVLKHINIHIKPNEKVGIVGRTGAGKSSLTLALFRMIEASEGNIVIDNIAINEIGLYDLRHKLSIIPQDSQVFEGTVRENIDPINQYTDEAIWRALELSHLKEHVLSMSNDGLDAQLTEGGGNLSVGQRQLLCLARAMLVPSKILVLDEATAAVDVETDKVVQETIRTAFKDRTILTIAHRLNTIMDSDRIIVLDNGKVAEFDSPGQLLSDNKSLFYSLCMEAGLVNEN
T2 sequence (Q42093 whole entry): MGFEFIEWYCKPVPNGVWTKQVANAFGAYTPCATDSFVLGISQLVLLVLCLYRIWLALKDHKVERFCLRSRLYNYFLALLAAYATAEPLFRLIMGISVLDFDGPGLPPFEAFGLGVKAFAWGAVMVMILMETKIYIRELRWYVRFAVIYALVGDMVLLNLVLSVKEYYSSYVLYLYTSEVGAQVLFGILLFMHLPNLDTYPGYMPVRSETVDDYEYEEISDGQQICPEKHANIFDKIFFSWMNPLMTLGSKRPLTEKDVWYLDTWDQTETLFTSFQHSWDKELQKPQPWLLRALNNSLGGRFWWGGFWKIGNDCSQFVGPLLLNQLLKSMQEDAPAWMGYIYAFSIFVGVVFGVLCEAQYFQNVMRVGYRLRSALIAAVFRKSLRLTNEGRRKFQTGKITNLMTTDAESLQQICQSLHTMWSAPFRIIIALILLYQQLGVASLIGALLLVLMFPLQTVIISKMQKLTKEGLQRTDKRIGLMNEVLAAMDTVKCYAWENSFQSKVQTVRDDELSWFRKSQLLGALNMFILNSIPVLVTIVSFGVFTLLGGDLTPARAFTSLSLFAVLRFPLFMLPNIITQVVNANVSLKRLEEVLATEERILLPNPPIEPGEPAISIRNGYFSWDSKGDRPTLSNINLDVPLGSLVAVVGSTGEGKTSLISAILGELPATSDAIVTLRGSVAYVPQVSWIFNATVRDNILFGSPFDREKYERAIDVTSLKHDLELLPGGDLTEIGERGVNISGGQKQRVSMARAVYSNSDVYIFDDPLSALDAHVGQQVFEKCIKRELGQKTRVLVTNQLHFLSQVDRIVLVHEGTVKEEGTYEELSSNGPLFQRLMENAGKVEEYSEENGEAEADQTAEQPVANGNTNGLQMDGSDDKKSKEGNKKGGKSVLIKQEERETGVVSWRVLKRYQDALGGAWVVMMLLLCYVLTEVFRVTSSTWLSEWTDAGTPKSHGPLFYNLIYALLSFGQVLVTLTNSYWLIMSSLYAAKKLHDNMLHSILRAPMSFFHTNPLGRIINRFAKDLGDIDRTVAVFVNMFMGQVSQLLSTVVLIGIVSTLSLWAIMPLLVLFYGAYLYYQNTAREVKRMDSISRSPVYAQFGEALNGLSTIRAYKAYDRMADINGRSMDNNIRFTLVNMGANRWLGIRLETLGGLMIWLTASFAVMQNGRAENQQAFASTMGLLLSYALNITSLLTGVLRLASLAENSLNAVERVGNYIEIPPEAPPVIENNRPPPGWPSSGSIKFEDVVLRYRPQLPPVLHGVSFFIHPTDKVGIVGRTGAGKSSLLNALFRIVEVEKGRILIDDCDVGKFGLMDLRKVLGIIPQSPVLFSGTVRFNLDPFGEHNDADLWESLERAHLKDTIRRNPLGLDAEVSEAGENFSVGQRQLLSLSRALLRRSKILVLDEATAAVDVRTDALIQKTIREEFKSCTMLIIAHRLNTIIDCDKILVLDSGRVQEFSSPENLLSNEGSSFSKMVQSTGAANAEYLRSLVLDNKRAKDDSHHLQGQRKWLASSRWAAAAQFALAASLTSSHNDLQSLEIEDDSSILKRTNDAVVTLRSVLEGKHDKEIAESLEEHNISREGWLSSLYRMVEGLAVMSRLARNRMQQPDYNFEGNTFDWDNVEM

As for `C=CC1=C(C)C(Cc2[nH]c(C3c4[nH]c(Cc5[nH]c(C=O)c(C)c5CCOC(=O)CC(=O)O)c(C)c4C(=O)C3C(=O)O)c(CCC(=O)O)c2C)NC1=O` (stereo not drawn) [Bn-NCC-1], on AtMRP1 (setting [6]), the “Km for AtMRP1-dependent uptake” value was “Linear”. Moreover, on AtMRP2 (setting [6]), the Km is 15.2 µM and 15 µM; the “Vmax for AtMRP2-dependent uptake” value was found to be 63.1 ± 2.5 nmol/mg/10 min.

Consider `OC[C@H]1O[C@@H](Oc2cc3c(O)cc(O)cc3[o+]c2-c2ccc(O)c(O)c2)[C@H](O)[C@@H](O)[C@@H]1O` [C3G, cyanidin-3-glucoside], for which the “MgATP-dependent, uncoupler-insensitive uptake of unconjugated precursor detectable” value on AtMRP1 and on AtMRP2 was “In no case” throughout.

With `O=[N+]([O-])c1ccc(Cl)c([N+](=O)[O-])c1` [DNP], the “MgATP-dependent, uncoupler-insensitive uptake of unconjugated precursor detectable” value at AtMRP1 and on AtMRP2 was “In no case” throughout.

Turning to `N[C@@H](CCC(=O)N[C@@H](CS)C(=O)NCC(=O)O)C(=O)O` [GSH, glutathione], the “t1/2 of GSH stimulation of Cd2+ uptake” value in experiment [1] was below 5 min. Further, the “MgATP-dependent, uncoupler-insensitive DNP-GS uptake plus compound” value in experiment [2] is 50.6 ± 2.3 nmol/mg/10 minutes; in experiment [3] it was 4.6 ± 1.1 nmol/mg/10 minutes. Moreover, the “MgATP-dependent, uncoupler-insensitive DNP-GS uptake as percentage of control” value in experiment [2] (dty165 vacuolar membrane vesicles, 10 min) stood at 105.6; in experiment [3] (dty167 vacuolar membrane vesicles, 10 min) it was 70.8. Moreover, the “MgATP-dependent, uncoupler-insensitive uptake of unconjugated precursor detectable” value on AtMRP1 and on AtMRP2 was “In no case” each time.

Turning to `COc1ccc2c(c1)OC1c3ccc(O)cc3OCC21` (stereo not drawn) [medicarpin], the “uptake in the presence of MgATP” value in experiment [4] (65 μM, 3 mM MgATP) is on record as 16.7±3.6 nmol/mg/20 minutes. In addition, the “uptake in the absence of MgATP” value in experiment [4] (65 μM, -MgATP) worked out at 7.4±1.3 nmol/mg/20 minutes.

With `CCc1cccc(C)c1N(C(=O)CCl)C(C)COC` (stereo not drawn) [metolachlor], the “MgATP-dependent, uncoupler-insensitive uptake of unconjugated precursor detectable” value on AtMRP1 and at AtMRP2 was “In no case” throughout.

For Gramicidin D, the “109Cd.GS2 uptake plus addition” value in experiment [1] (setting [7]) is 77.8 ± 6.4 nmol/mg/10 minutes; in experiment [5] (setting [7]), 9.3 ± 2.0 nmol/mg/10 minutes. For the same molecule, the results for the “109Cd.GS2 uptake as percentage of control” value in experiment [1] (setting [8]) and in experiment [5] (setting [8]) were 73.5% and 56.6%, respectively. Also, the “decrease of MgATP-dependent Cd.GS2 uptake” value in experiment [1] (text to Table 7) came to 22%. Besides, the “DNP-GS uptake plus the compound indicated” value is reported as 45.8 ± 1.4 nmol/mg/10 minutes in experiment [2] (setting [9]) and 5.8 ± 0.1 nmol/mg/10 minutes in experiment [3] (setting [9]). Further, the figures for the “DNP-GS uptake as percentage of control plus the compound indicated” value in experiment [2] (setting [10]) and in experiment [3] (setting [10]) were 58.9% and 37.7%, respectively. Further, the “[3H]Medicarpin-GS uptake with treatment, +MgATP” value in experiment [4] (65 μM medicarpin-GS, 3 mM MgATP, gramicidin-D 5 μM, vanadate 10 μM, DNP-GS 100 μM) was determined as 71.2 ± 3.0 nmol/mg/10 minutes. The “[3H]Medicarpin-GS uptake with treatment, -MgATP” value in experiment [4] (65 μM medicarpin-GS, gramicidin-D 5 μM, vanadate 10 μM, DNP-GS 100 μM) came out at 13.2 ± 2.1 nmol/mg/10 minutes. Besides, the “[3H]Medicarpin-GS uptake as percentage of control, +MgATP” value in experiment [4] (setting [11]) amounted to 83.2%. Also, the “[3H]Medicarpin-GS uptake as percentage of control, -MgATP” value in experiment [4] (setting [11]) was found to be 79.0%. The “inhibition of MgATP-dependent [3H]medicarpin-GS uptake” value in experiment [4] (vanadate 10 μM, DNP-GS 100 μM, gramicidin D) is 17%.

In the case of Triton X-100, the “release (efflux) of accumulated [3H]DNP-GS after hexokinase trap” value at AtMRP2 is listed as “more than 3 fold”.
